Consider six compounds from ChEMBL document CHEMBL1143234, “Uncovering false positives on a virtual screening search for cruzain inhibitors” (Bioorg Med Chem Lett, 2008).

Calls of active or inactive are those of the source. No cut-off for these calls is given here.

Experiment [1] has as its target Cruzipain (Trypanosoma cruzi) (UniProt P25779). Kind of experiment: Inhibition of Trypanosoma cruzi cruzain upto 38.71 mM.
For experiment [2] the target is unchanged. The experiment can be described thus: Inhibition of Trypanosoma cruzi cruzain upto 0.67 mM.
Experiment [3] has the same target. The experiment can be described thus: Inhibition of Trypanosoma cruzi cruzain.
For experiment [4] the target is unchanged. Kind of experiment: Inhibition of Trypanosoma cruzi cruzain upto 7.22 mM.

Cruzipain (Trypanosoma cruzi), sequence (P25779 123-467 limits assumed): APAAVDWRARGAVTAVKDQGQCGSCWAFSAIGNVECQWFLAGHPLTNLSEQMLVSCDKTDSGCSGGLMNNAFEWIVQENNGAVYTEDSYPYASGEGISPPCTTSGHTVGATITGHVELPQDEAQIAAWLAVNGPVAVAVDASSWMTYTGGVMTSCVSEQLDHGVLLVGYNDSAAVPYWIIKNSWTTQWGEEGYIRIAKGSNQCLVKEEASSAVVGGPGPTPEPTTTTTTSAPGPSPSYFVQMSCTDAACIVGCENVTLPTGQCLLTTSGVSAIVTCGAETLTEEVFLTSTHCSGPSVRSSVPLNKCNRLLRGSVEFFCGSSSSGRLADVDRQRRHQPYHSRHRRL

For the compound `N#Cc1ccsc1NC(=O)/C=C/c1cccc(Cl)c1`, the outcome in experiment [1] was inactive.

`O=C(NC(Cc1c[nH]c2ccccc12)C(=O)N/N=C1\CCCN1)c1cccs1` (stereo unspecified): the result in experiment [2] was inactive.

As to `O=C(/C=C/c1cccs1)NC(Cc1ccccc1)c1nc2ccccc2[nH]1` (stereo unspecified), the Activity in experiment [3] amounted to 44.9 µM. Same read-out and setting: then `N#Cc1c(NC(=O)CC(NC(=O)c2ccccc2Cl)c2ccccc2)sc2c1CCCC2` (stereo unspecified), with 4.17 µM. On to `N#CC1(NC(=O)c2cc3ccccc3oc2=O)CCCCC1`, for which the result in experiment [4] was inactive.

`N#Cc1ccccc1NC(=O)C(=O)Nc1ccccc1C#N`: the Activity in experiment [3] worked out at 17.3 µM.
